# Reference: US8586603B2, “Aminotetraline derivatives” (priority 2009, dated 2013)
# “And” between values parts separate entries of the source, which are not always exact repeats. Identical values can stand only once. Like-named read-outs stand apart in the source and are kept apart here.
# Assays:
# [1] = biological target: T1, porcine striatal pD1 dopamine receptor (Sus scrofa, UniProt P50130); test: Receptor binding assay, [3H]SCH 23390 competition, porcine striatal membranes; details: for Ki: means of 2-8 individual experiments each done as triplicate; for selectivity ratio pD1: vs p5-HT1a
# T1 construct: membrane homogenates prepared from porcine striatal or cortical tissue; from tissue; host or cells: porcine striatum
# T1 sequence (P50130 whole entry): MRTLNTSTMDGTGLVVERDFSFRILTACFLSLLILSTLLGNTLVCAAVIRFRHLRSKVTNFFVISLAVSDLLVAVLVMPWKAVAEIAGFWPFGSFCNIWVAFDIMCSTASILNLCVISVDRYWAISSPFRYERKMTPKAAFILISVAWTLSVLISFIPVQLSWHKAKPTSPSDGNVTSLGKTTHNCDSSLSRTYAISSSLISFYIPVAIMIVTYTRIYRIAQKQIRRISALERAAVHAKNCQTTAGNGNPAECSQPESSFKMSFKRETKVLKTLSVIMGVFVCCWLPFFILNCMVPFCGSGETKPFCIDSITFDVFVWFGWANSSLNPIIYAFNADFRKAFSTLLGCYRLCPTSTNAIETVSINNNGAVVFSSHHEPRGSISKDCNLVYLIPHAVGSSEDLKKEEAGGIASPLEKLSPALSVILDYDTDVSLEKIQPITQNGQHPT
# [2] = biological target: T2, porcine cortical pα1 adrenergic receptor; test: Receptor binding assay, [3H]prazosin competition, porcine cortical membranes; details: means of 2-8 individual experiments each done as triplicate
# T2 construct: Ki pα1; other: means of 2-8 individual experiments each done as triplicate
# [3] = biological target: porcine cortical pα2 adrenergic receptor; test: Receptor binding assay, [3H]RX821002 competition, porcine cortical membranes; details: means of 2-8 individual experiments each done as triplicate
# [4] = biological target: T3, human dopamine receptor subtype hD4.4 (Homo sapiens, UniProt P21917); test: Receptor binding assay, [3H]spiperone competition, CHO cell membranes; details: for Ki: means of 2-8 individual experiments each done as triplicate; for selectivity ratio hD4.4: vs p5-HT1a
# T3 construct: expressed in transfected cells; host or cells: CHO
# T3 sequence (P21917 1-419): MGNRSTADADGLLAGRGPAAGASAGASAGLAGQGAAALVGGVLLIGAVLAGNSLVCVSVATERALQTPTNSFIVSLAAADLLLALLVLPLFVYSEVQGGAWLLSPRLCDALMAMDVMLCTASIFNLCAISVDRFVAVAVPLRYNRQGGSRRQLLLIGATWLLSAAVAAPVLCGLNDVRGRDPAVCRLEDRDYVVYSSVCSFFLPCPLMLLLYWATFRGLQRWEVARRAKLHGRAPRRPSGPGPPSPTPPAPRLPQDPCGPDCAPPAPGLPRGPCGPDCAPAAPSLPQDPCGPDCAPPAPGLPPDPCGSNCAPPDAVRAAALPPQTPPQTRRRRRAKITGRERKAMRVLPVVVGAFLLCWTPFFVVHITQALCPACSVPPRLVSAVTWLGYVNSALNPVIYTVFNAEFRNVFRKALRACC
# Protocol: Receptor binding data were determined when performing competition binding assays with membrane preparations of cloned cells (stably transfected Chinese Hamster Ovary cells (CHO)) expressing the human receptors and the following radioligands: [^3H]spiperone at the human dopamine receptor subtypes hD2long, hD2short, D3, and hD4.4. […].
# (§1) Selectivity ratios were calculated by division of the Ki values of the various compounds at the respective receptors through the Ki values at the 5HT1a receptor.
# [5] = biological target: T4, human dopamine receptor subtype hD2long (Homo sapiens, UniProt P14416); test: as above; details: for Ki: means of 2-8 individual experiments each done as triplicate; for selectivity ratio hD2long: vs p5-HT1a
# T4 construct: expressed in transfected cells; host or cells: CHO
# T4 sequence (P14416 whole entry): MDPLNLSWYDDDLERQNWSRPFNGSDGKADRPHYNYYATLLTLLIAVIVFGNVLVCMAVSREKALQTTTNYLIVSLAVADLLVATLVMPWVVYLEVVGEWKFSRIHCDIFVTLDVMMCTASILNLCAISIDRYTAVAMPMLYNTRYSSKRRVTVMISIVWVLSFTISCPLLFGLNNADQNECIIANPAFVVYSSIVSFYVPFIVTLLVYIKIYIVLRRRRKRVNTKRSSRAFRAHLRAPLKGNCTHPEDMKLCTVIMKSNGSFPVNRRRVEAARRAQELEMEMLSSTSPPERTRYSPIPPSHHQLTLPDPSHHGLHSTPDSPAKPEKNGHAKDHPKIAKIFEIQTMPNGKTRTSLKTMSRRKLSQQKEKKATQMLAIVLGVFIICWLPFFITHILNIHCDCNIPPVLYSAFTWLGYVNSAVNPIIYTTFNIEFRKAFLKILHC
# Protocol: (§2) Receptor binding data were determined when performing competition binding assays with membrane preparations of cloned cells (stably transfected Chinese Hamster Ovary cells (CHO)) expressing the human receptors and the following radioligands: [^3H]spiperone at the human dopamine receptor subtypes hD2long, hD2short, D3, and hD4.4.
# as §1
# [6] = biological target: T5, human dopamine receptor subtype hD2short (Homo sapiens, UniProt P14416); test: as above; details: for Ki: means of 2-8 individual experiments each done as triplicate; for selectivity ratio hD2short: vs p5-HT1a
# T5 construct: expressed in transfected cells; host or cells: CHO
# T5 sequence (P14416 1-414 isoform P14416-2): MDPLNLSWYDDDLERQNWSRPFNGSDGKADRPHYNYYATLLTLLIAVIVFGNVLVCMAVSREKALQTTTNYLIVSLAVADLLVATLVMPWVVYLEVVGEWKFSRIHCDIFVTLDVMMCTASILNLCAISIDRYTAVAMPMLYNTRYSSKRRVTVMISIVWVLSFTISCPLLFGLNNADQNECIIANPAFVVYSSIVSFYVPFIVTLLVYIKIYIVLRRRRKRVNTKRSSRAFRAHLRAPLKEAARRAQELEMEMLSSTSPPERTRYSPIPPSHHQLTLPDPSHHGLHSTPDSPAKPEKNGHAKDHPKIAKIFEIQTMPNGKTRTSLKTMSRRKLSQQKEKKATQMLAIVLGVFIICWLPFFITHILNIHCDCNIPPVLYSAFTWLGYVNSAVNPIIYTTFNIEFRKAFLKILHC
# Protocol: as §2, §1
# [7] = biological target: T6, human dopamine receptor subtype hD3 (Homo sapiens, UniProt P35462); test: as above; details: for Ki: means of 2-8 individual experiments each done as triplicate; for selectivity ratio hD3: vs p5-HT1a
# T6 construct: expressed in transfected cells; host or cells: CHO
# T6 sequence (P35462 whole entry): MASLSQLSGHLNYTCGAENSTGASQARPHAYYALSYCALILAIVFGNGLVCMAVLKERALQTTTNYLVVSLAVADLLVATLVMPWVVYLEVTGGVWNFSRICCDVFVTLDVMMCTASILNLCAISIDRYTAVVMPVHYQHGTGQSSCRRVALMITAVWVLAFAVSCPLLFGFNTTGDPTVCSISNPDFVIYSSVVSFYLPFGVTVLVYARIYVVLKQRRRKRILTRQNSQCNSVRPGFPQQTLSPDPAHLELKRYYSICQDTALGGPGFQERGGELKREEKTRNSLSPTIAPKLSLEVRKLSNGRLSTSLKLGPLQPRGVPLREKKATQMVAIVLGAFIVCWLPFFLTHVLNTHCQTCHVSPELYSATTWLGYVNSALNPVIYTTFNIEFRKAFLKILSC
# Protocol: as §2, §1
# [8] = biological target: T7, porcine cortical p5-HT2 serotonin receptor (Sus scrofa, UniProt P50129); test: Receptor binding assay, [3H]ketanserin competition, porcine cortical membranes; details: for Ki: means of 2-8 individual experiments each done as triplicate; for selectivity ratio p5-HT2: vs p5-HT1a
# T7 construct: membrane homogenates prepared from porcine striatal or cortical tissue; from tissue; host or cells: porcine cortex
# T7 sequence (P50129 whole entry): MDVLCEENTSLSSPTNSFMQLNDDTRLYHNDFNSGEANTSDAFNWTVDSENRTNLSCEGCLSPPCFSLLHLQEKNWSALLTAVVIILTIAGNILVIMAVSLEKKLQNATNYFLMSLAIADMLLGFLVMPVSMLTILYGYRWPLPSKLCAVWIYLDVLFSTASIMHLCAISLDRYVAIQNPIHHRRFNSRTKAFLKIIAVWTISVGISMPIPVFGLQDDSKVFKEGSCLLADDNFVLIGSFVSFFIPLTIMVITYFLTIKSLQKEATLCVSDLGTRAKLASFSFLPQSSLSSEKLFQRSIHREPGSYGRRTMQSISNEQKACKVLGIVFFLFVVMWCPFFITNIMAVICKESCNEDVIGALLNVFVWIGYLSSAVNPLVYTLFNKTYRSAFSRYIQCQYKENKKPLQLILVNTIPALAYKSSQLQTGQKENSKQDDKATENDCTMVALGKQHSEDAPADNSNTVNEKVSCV
# [9] = biological target: T8, porcine cortical p5-HT1a serotonin receptor (Sus scrofa, UniProt A0A4X1UTF5); test: Receptor binding assay, [3H]WAY100635 competition, porcine cortical membranes; details: for Ki: means of 2-8 individual experiments each done as triplicate; for selectivity ratio p5-HT1a: reference receptor of the ratio (=1)
# T8 construct: membrane homogenates prepared from porcine striatal or cortical tissue; from tissue; host or cells: porcine cortex
# T8 sequence (A0A4X1UTF5 1-422): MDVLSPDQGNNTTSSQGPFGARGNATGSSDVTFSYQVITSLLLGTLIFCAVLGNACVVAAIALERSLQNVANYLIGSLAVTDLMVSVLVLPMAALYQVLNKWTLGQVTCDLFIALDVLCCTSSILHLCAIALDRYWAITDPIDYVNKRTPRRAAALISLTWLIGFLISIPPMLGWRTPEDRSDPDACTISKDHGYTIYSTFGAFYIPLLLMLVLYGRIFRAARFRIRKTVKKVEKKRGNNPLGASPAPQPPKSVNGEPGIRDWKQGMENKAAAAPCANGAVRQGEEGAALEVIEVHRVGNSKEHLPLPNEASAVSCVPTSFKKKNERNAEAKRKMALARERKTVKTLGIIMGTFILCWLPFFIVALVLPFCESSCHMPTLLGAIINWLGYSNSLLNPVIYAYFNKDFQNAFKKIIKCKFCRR
# [10] = system: porcine cortical pα1 adrenergic receptor; test: Receptor binding assay, [3H]prazosin competition, porcine cortical membranes; details: vs p5-HT1a
# human 5-HT1a receptor = biological target: T9, human 5-HT1a receptor (Homo sapiens, UniProt P08908); test: [35S]GTPγS functional assay; type: biochemical; details: for Emax: read-out: intrinsic activity [% rel. to serotonin]
# T9 construct: expressed in transfected cells
# T9 sequence (P08908 1-422): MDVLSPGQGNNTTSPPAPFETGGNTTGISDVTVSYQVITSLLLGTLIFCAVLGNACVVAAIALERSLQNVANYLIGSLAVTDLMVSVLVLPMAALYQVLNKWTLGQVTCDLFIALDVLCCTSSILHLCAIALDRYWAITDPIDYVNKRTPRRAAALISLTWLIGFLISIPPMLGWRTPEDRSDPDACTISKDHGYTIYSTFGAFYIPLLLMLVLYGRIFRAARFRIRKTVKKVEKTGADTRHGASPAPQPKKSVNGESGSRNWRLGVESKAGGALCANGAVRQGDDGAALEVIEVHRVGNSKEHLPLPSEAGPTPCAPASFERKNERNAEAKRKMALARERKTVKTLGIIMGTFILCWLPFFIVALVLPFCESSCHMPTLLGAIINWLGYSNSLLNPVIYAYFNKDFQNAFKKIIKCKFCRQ
# Protocol: Specific binding of [^35S]GTPγS is stimulated by activation of the stably expressed human 5-HT1a receptor in a dose-dependent way by agonists for this GPCR and is determined by measuring the radioactive label of the membrane. Non-linear regression analysis of the resulting dose-response curves yields the EC50 value in [nM] representing the half maximal concentration which is necessary to activate the receptor completely.
# [11] = mean values of 2-8 individual experiments
Compound,Ki [1] [nM],Ki [2] [nM],Ki [3] [nM],Ki [4] [nM],Ki [5] [nM],Ki [6] [nM],Ki [7] [nM],Ki [8] [nM],Ki [9] [nM],selectivity ratio pD1 [1],selectivity ratio pα1 [10],selectivity ratio hD4.4 [4],selectivity ratio hD2long [5],selectivity ratio hD2short [6],selectivity ratio hD3 [7],selectivity ratio p5-HT2 [8],selectivity ratio p5-HT1a [9],other results
"CCCN(CCc1ccccc1)C1CCc2cccc(OC)c2C1 (centres unmarked) [Compound 4, N-(8-Methoxytetralin-2-yl)-N-(2-phenylethyl)-N-propylamine]",7300,190,60,530,330,230,51,4200,2.5,–,–,–,–,–,–,–,–,–
"CCCN(CCc1cc(C)ccc1C)C1CCc2cccc(O)c2C1 (centres unmarked) [Compound 7, N-[2-(2,5-Dimethylphenyl)ethyl]-N-(8-hydroxytetralin-2-yl)-N-propylamine]",2400,78,–,490,140,90,130,1700,1.7,1 400,46,290,82,53,76,1 000,1,melting point: 102 °C
"CCCN(CCc1cccs1)[C@@H]1CCc2cccc(OC)c2C1 [Compound 2a, (R)—N-(8-Methoxytetralin-2-yl)-N-propyl-N-[2-(2-thienyl)ethyl]amine]",5200,140,64,880,750,840,230,6000,7.3,–,–,–,–,–,–,–,–,EC50 (human 5-HT1a receptor; [11]): 1.1 nM; Emax (human 5-HT1a receptor): 82%
"CCCN(CCc1cccs1)[C@@H]1CCc2cccc(O)c2C1 [Compound 1a, (R)—N-(8-Hydroxytetralin-2-yl)-N-propyl-N-[2-(2-thienyl)ethyl]amine]",8800,640,56,100,240,260,100,2500,0.52,17 000,1 200,190,460,500,190,4 800,1,agonist activity at the human 5-HT1a receptor (human 5-HT1a receptor; in words): full agonist activity; EC50 (human 5-HT1a receptor; [11]): 0.65 to 1.9 nM and 0.65 nM; Emax (human 5-HT1a receptor): 103%
N-(2-Adamantylethyl)-N-(8-hydroxytetralin-2-yl)-N-propylamine [Compound 9],2600,570,–,350,16,12,39,1600,3.5,740,160,100,4.6,3.4,11,1600,1,EC50 (human 5-HT1a receptor): 1.9 nM; intrinsic activity [% rel. to serotonin] (human 5-HT1a receptor; [35S]GTPγS incorporation relative to serotonin (=100%)): 88%
"CCCN(CCc1ccccc1)C1CCc2cccc(O)c2C1 (centres unmarked) [Compound 3, N-(8-Hydroxytetralin-2-yl)-N-(2-phenylethyl)-N-propylamine]",9100,140,–,590,760,170,190,5800,0.62,15 000,230,950,1 200,270,310,9 400,1,–
"CCCN(CCc1ccc(O)cc1)C1CCc2cccc(O)c2C1 (centres unmarked) [Compound 5, N-[2-(4-Hydroxyphenyl)ethyl]-N-(8-hydroxytetralin-2-yl)-N-propylamine]",6200,87,–,570,340,86,95,6600,1.1,5 600,79,520,310,80,86,6 000,1,–
